The assay has as its target T1, Sentrin-specific protease 6 (Homo sapiens, UniProt Q9GZR1).
T1 sequence (Q9GZR1 whole entry): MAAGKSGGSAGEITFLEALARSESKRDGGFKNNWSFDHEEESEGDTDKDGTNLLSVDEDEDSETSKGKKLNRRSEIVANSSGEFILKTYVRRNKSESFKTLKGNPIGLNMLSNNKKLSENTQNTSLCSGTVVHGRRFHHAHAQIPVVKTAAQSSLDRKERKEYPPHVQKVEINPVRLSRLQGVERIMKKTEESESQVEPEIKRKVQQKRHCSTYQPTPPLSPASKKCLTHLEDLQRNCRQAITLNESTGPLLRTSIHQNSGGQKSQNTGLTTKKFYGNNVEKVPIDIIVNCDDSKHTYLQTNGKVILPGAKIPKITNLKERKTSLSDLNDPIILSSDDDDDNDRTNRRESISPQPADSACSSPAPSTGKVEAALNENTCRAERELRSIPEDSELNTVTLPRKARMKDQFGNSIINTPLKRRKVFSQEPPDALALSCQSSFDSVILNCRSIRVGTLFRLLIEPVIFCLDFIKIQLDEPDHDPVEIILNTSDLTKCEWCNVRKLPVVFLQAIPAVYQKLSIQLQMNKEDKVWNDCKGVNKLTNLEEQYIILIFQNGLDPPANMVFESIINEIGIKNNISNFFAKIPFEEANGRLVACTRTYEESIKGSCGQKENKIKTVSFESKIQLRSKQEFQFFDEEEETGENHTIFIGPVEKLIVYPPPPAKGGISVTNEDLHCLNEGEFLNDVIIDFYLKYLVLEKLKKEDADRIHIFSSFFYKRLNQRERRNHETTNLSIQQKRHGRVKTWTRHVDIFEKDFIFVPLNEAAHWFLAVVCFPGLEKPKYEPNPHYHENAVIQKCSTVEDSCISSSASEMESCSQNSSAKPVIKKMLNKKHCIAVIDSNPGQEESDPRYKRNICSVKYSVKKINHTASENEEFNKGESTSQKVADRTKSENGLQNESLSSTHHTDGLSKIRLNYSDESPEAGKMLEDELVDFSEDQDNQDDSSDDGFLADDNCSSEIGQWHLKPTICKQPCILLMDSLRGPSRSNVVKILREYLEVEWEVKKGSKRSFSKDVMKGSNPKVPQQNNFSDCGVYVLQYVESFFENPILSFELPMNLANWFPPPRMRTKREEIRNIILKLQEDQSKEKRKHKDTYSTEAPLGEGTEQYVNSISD
Format: functional.

Activity calls are given as the source filed them. Rule as the data show it: actives have a measured IC50 and inactives only a lower limit.
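Also: Luminescence-based dose-response confirmatory assay of SENP6 inhibition, following up an ultra-high-throughput screen.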

For `CN(CC(=O)Nc1ccccc1Cl)C(=O)COC(=O)c1ccc([N+](=O)[O-])s1`, the concentration for half-maximal inhibition (IC50) – broadly, the concentration that gives 50% inhibition – is 4.72 µM (active).

The values are drawn from ChEMBL document CHEMBL1201862, “PubChem BioAssay data set” (2004).
